This note sets out measurements from ChEMBL document CHEMBL1201862, “PubChem BioAssay data set” (2004).

Calls of active or inactive are those of the source.

Data set [1] can be described thus: CRF-BP/CRF-R2 complex antagonists, dose response, cell-based, uHTS hits, 384-well (AID 651639). Type of data set: functional, Homo sapiens. Conditions: read-out: IC50_Mean.
The target of data set [2] is T1, Corticotropin-releasing factor receptor 2/Corticotropin-releasing factor-binding protein (Homo sapiens, UniProt P24387+Q13324).
T1 sequence (Q13324 whole entry): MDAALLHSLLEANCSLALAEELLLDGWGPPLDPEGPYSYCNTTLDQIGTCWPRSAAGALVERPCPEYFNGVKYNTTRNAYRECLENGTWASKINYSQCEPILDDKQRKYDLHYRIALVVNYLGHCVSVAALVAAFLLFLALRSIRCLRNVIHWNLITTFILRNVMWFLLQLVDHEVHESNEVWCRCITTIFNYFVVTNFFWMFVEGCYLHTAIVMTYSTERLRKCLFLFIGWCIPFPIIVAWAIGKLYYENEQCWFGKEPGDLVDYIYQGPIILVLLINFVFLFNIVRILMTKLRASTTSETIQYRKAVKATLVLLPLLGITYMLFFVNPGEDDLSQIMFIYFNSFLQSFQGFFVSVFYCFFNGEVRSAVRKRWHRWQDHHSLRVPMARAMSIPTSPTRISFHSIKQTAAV
T1 sequence (P24387 whole entry): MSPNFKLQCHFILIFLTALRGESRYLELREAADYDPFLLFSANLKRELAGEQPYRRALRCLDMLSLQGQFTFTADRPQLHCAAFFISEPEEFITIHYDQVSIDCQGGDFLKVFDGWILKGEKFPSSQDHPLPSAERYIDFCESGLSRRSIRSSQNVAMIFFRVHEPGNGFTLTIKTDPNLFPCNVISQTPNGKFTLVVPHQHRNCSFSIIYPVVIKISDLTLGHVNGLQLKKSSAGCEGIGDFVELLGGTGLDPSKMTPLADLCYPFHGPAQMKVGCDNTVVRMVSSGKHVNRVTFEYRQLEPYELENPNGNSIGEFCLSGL
The data set can be described thus: Dose Response confirmation of uHTS hits for small molecule antagonists of the CRF-binding protein and CRF-R2 receptor complex. Type of data set: functional. As to conditions: read-out: IC50_Mean.

Data set [3] concerns the target T1, Corticotropin-releasing factor receptor 2/Corticotropin-releasing factor-binding protein. As to the kind of experiment: activators of CRF receptor 2 with binding protein – uHTS hits, confirmation (AID 602473). Conditions: read-out: EC50_Mean. The format is functional.
Data set [4] concerns the target Cytochrome P450 2D6 (Homo sapiens, UniProt P10635).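 Note: CYP2D6 member of a cytochrome P450 panel assay.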
In data set [5] the target is Cytochrome P450 3A4 (Homo sapiens, UniProt P08684).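 Note: CYP3A4 tested as one member of a cytochrome P450 panel screen.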
Data set [6] addresses Cytochrome P450 2C9 (Homo sapiens, UniProt P11712).
Data set [7] addresses Glyceraldehyde-3-phosphate dehydrogenase (Homo sapiens, UniProt P04406).
Data set [8] in a line: cells. The format is functional, cell-based.
In data set [9] the target is T2, Nuclear receptor subfamily 0 group B member 1 (Homo sapiens, UniProt P51843).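 Note: HEK293T cells transfected with SF-1 and DAX-1 plus StAR promoter luciferase reporter.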
T2 sequence (P51843 whole entry): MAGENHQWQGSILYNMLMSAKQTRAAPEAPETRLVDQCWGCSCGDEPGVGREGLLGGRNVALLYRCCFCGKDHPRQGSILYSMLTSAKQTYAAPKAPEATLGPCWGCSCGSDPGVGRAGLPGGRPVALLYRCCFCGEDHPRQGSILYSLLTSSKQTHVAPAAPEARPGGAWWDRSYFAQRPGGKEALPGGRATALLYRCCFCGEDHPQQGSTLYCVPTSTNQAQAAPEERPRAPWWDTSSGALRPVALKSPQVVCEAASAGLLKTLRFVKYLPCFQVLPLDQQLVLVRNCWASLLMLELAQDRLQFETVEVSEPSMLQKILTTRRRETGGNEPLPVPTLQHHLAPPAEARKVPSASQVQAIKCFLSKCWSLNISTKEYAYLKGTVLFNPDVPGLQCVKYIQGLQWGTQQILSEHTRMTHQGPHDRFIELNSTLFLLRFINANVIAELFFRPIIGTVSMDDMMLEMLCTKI
Type of data set: functional, cell-based.

A short description of data set [10]: HEK293T cytotoxicity, dose response, cytotoxicity control for miR-122 modulator project, cell-based, inhibitor set, cherry-pick, set 2 (AID 720697). The format is functional.
A short description of data set [11]: cytotoxicity toward NIH3T3 fibroblasts, dose response, counter-screen, cell-based, ATP luminescence, mouse fibroblasts (AID 2010).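 Note: cells exposed to compound for about 90 hours before reading.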 The format is functional.
Data set [12] can be described thus: cells. Type of data set: functional.
Data set [13] is described as follows: THP-1 cell cytotoxicity, dose response, cytotoxicity control for non-replicating M. tuberculosis project (AID 489025). The format is functional.
Data set [14] is described as follows: inhibitors of intracellular T. cruzi replication, confirmation, NIH3T3 host cells, beta-gal luminescence (AID 2044).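 Note: intracellular parasites grown in NIH/3T3 mouse fibroblasts as host cells; luminescent beta-galactosidase reporter signal from transgenic T. cruzi replicating inside host cells; inhibitors lower the luminescence signal.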 Type of data set: functional, cell-based.
Data set [15] concerns the target Glucose-6-phosphate 1-dehydrogenase (Homo sapiens, UniProt P11413). As to the kind of experiment: human G6PD enzyme inhibitors, dose response, selectivity assay for P. falciparum G6PD inhibitor project, biochemical, fluorescence (AID 504792). The format is functional.
In data set [16] the test system is CHO. The data set can be described thus: cytotoxicity in TLR9-MyD88 CHO cells, dose response, cytotoxicity control for TLR9-MyD88 binding inhibitor project, cell-based, luminescence (AID 588339).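 Note: CHO cells stably coexpressing TLR9 and MyD88 fusions from primary screen; compound exposure lasted 48 hours before viability readout.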 Conditions: Cricetulus griseus. The format is functional, hamster.
The target in data set [17] is Beta Lactamase (Pseudomonas aeruginosa, UniProt Q932Y6). As to the kind of experiment: beta-lactamase reporter inhibitor potency, dose response, artefact control for TLR9-MyD88 binding inhibitor project, BLA reporter cells, FRET fluorescence (AID 588341).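 Note: cell based assay in CHO-K1 cells stably expressing beta-lactamase.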 Type of data set: cell-based.
A short description of data set [18]: cytotoxicity in HEK-293T cells, dose response, cytotoxicity control for TCR NF-kB inhibitor project, luminescence, T-cell screen hits (AID 489026).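 Note: cells exposed to compound about 14 hours before the viability readout.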 The format is functional, cell-based.
Data set [19] can be described thus: HepG2 cell cytotoxicity, dose response, cytotoxicity control for Shn3 inhibitor project, CellTiter-Glo, cherry-picked (AID 624134). Type of data set: functional, cell-based.
The nature of data set [20]: Luminescence Cell-Based Dose Retest to Confirm Inhibitors of Cancer Stem Cells. [Related pubchem assays (depositor defined):AID2717, AID2721]. The format is functional. As to conditions: Homo sapiens.
Data set [21] concerns the target T3, Heat shock factor protein 1 (Mus musculus, UniProt P38532).
T3 sequence (P38532 whole entry): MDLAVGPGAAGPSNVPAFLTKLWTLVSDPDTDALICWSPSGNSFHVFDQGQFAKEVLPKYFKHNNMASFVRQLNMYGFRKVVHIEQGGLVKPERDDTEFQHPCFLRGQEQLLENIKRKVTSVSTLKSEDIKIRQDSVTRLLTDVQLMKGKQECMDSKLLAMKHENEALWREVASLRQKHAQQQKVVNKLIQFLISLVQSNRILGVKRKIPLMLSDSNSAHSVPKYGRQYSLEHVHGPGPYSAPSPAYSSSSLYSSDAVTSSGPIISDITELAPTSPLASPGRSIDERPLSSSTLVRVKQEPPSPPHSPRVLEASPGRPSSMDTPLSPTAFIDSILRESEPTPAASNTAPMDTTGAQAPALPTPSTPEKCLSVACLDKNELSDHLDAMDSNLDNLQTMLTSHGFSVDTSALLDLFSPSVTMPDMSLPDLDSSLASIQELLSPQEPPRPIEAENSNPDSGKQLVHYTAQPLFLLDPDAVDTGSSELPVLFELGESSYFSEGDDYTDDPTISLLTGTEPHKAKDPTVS
The data set can be described thus: HSF1 potentiators in luciferase reporter cells, confirmation, cell-based, NIH3T3, luminescence, dose retest (AID 435004).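 Note: stress induced by proteasome inhibitor MG132 added 30 min after compound; luciferase reporter driven by HSF1 response element in NIH3T3 cells; actives raise luminescence as potentiators of the MG132 stress response.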 Type of data set: functional.

Data set [22] in a line: Shn3 3'UTR reporter inhibitors, dose response, cell-based, Clone20 osteoblasts, firefly luciferase, cherry-picked (AID 624132).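 Note: firefly luciferase luminescence from reporter carrying the Shn3 3'UTR in osteoblasts.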 The format is functional.
Data set [23] can be described thus: control 3'UTR Renilla luciferase suppression, dose response, counter-screen for Shn3 inhibitor project, cell-based, Clone20-Shn3RL, cherry-picked (AID 624133). The format is functional.
The target of data set [24] is T4, Cytochrome P450 1A2 (Homo sapiens, UniProt P05177).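 Note: PubChem cytochrome P450 panel assay, CYP1A2 panel member.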
T4 sequence (P05177 whole entry): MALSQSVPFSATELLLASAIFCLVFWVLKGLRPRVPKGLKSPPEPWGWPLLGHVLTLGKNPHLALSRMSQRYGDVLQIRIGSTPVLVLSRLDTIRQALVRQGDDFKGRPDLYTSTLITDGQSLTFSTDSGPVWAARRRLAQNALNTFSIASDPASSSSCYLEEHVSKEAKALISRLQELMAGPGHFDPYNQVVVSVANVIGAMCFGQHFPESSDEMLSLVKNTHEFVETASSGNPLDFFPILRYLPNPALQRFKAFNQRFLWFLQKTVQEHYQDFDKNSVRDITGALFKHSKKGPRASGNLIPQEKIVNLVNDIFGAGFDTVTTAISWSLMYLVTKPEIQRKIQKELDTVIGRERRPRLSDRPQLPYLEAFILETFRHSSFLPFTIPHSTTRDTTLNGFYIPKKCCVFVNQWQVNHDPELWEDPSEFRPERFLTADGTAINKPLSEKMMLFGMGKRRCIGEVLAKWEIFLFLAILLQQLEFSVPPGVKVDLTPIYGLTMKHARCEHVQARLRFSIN

Data set [25] deals with Cytochrome P450 2C19 (Homo sapiens, UniProt P33261). The data set can be described thus: Cytochrome panel assay with activity outcomes. Panel member name: p450-cyp2c19 Compounds with AC50 equal or less than 10 uM are considered active. Type of data set: functional.
Sequence of Cytochrome P450 2C19 (P33261 whole entry): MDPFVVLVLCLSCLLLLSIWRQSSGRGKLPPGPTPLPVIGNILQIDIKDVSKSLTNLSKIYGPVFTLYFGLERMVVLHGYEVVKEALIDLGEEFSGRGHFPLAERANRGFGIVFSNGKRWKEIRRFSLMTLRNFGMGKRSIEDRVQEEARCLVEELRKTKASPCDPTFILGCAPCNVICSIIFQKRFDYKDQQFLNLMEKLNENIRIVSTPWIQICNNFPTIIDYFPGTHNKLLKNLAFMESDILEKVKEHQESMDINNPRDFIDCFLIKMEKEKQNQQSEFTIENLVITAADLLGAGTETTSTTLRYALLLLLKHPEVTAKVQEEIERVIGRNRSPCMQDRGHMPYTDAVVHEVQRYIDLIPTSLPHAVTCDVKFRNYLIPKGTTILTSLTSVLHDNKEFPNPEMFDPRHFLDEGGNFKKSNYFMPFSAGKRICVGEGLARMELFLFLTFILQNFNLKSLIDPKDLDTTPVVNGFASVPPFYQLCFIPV

Sequence of Glyceraldehyde-3-phosphate dehydrogenase (P04406 whole entry): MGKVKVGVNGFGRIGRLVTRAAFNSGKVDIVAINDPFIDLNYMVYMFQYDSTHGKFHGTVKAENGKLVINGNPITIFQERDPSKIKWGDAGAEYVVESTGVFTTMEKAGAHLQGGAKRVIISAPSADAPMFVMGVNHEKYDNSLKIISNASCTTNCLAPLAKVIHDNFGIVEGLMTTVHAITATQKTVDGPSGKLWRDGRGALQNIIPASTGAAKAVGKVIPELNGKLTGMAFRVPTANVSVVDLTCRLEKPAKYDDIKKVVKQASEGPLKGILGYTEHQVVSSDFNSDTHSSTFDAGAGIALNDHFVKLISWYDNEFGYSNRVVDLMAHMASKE
Sequence of Cytochrome P450 2C9 (P11712 whole entry): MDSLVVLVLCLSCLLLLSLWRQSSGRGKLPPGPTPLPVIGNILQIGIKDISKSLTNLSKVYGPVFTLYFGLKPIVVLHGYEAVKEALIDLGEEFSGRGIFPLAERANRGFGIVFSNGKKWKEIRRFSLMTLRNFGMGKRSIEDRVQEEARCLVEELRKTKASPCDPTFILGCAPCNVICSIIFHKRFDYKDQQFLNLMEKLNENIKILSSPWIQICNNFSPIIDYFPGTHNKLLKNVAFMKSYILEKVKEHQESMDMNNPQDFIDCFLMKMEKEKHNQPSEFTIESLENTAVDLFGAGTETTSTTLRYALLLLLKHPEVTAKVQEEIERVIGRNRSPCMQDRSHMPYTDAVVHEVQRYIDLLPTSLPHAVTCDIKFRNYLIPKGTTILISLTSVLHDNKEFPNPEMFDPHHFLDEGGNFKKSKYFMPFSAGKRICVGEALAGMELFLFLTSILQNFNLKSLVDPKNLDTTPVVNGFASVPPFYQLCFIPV
Sequence of Glucose-6-phosphate 1-dehydrogenase (P11413 whole entry, the tested form may be a part): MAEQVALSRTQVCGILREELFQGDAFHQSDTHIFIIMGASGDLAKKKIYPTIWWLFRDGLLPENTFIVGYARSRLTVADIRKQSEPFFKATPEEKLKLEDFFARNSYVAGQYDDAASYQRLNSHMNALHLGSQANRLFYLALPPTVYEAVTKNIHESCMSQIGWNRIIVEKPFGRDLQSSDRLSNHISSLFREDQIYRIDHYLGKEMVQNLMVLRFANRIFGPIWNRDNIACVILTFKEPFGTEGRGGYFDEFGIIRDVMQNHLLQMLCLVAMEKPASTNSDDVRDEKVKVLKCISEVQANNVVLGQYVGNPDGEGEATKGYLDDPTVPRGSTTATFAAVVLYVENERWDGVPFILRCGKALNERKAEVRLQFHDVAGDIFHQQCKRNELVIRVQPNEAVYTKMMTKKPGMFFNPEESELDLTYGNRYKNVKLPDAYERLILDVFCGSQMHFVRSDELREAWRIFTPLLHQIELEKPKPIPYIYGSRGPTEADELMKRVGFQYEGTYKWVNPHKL
Sequence of Cytochrome P450 2D6 (P10635 whole entry): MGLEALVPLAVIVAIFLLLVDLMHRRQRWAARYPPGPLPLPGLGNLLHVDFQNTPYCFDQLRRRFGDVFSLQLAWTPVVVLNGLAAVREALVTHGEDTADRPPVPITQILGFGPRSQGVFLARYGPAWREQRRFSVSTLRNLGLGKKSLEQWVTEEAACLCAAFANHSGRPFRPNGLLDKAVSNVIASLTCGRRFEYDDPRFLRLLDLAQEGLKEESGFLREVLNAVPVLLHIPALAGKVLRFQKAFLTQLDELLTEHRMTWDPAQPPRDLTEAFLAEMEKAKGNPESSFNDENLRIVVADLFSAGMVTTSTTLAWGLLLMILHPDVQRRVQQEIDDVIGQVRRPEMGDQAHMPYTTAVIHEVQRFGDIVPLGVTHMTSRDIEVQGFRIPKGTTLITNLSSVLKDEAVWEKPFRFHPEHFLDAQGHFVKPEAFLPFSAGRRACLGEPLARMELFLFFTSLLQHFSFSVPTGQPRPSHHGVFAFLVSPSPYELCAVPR
Sequence of Cytochrome P450 3A4 (P08684 whole entry): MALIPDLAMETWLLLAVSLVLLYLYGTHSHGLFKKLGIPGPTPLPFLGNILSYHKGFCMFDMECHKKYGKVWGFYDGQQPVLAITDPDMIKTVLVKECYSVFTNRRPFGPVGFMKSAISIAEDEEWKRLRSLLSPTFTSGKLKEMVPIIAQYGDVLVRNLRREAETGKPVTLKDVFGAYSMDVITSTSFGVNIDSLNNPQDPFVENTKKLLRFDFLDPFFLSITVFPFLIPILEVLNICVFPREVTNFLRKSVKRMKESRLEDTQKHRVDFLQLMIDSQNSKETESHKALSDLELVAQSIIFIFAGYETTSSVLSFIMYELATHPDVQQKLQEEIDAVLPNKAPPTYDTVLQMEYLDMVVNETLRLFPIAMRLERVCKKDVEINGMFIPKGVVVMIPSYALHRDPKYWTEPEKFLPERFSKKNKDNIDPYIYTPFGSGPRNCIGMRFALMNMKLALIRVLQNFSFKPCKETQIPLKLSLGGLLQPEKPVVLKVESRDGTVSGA
Sequence of Beta Lactamase (Q932Y6 whole entry): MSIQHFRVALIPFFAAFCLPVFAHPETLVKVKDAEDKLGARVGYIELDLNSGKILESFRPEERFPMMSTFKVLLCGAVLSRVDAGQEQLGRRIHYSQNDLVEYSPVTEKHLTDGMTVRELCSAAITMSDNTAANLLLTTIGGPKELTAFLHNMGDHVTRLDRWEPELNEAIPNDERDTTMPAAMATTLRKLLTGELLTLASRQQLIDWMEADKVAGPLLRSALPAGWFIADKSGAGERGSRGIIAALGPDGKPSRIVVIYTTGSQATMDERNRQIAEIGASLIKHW

In the case of `COc1ccc(/C=C/C(=O)Nc2c(C)nn(C)c2C)cc1COc1ccc(Br)cc1`, the IC50 in [1] is > 20 µM (inactive); in [2], 16.1 µM (active). Moreover, the EC50 in [3] is > 53 µM (inactive).

In the case of `FC(F)(F)c1cccc(NC(=S)Nc2cccc(Cl)c2)c1`, the AC50 in data set [4] was 28.2 µM (inconclusive); in data set [5] it was 25.1 µM (inconclusive); in [6], “inconclusive”.

As to `COC(=O)c1cc(OC)c(OC)cc1NC(=O)c1ccco1`, the IC50 was > 20 µM (inactive) in [1] and 38.9 µM (active) in [2]. For the same molecule, the EC50 in data set [3] is > 53 µM (inactive).

On to `O=C1C(Cl)=C(N2CCN(CCO)CC2)C(=O)N1c1cccc(C(F)(F)F)c1`, for which the IC50 in [7] is > 50 µM (inconclusive).

Turning to `c1ccc2c(c1)OCCOCCOCCOCCOc1ccccc1OCCOCCOCCO2`, the IC50 in data set [1] was > 20 µM (inactive); in [2] it was 7.94 µM (active). For the same molecule, the EC50 in data set [3] was 15.4 µM (active).

For the molecule `C/C(=N/NC(=O)c1ccc2c(c1)OCO2)c1ccc(NC(=O)c2ccc(F)cc2)cc1`, the IC50 in [8] and in data set [9] was > 67.5 µM (inactive) in each case.

In the case of `C=C1[C@@H](C)C2[C@H](Cc3ccccc3)NC(=O)[C@]23[C@H](OC(C)=O)/C=C/[C@@](C)(O)C(=O)[C@@H](C)C/C=C/[C@H]3[C@@H]1O` (stereo partly specified), the results for the IC50 in data set [8] and in data set [9] were > 67.5 µM (inactive) and 14 µM (inactive), respectively.

Consider `Cc1cc2n(n1)C(c1cn(-c3ccccc3)nc1C)Nc1c(C)cccc1-2` (stereo unspecified), for which the AC50 in data set [10] is 0.562 µM (active).

In the case of `CCCCNC(=O)Cc1coc2ccc3ccccc3c12`, the AC50 result in data set [6] is on record as “inconclusive”.

For `Cc1cc(C)n(CC(=O)N/N=C/c2ccc([N+](=O)[O-])s2)n1`, the EC50 is > 60 µM (not active) in data set [11] and 0.845 µM (active) in data set [14]. Besides, in data set [12], the IC50 was 48.5 µM (active). For the same molecule, the CC50 in data set [13] is > 40 µM (active).

Regarding `N#Cc1c(C#N)c(SSc2c(C#N)c(C#N)c(N)n2-c2ccccc2)n(-c2ccccc2)c1N`, the IC50 in [15] was > 80 µM (inactive).

As to `CO[C@@H]1CN(C)C(=O)c2cc(NC(=O)NC(C)C)ccc2OC[C@H](C)N(Cc2cncnc2)C[C@H]1C`, the AC50 in data set [10] was 0.472 µM (active).

Consider `O=C1C=CC(=O)N1c1ccc2c(c1)C(NC(=O)C(F)(F)F)c1ccccc1-2` (stereo unspecified), for which the IC50 in data set [15] was > 80 µM (inactive); in [16] it was 1.91 µM (active); in [17], 14.5 µM (inactive).

Turning to `Cc1cc(C)c(C)c(S(=O)(=O)Nc2ccccc2C(=O)O)c1C`, the figures for the IC50 in data set [1] and in [2] were > 20 µM (inactive) and 16.3 µM (active), respectively. Besides, the EC50 in data set [3] is > 53 µM (inactive).

Take `Cc1ccc(Cc2c(-c3ccc(Br)cc3)nc3cc(C)ccn23)cc1`: the IC50 in data set [8] and in data set [9] was > 67.5 µM (inactive) in each case.

For `NC(=O)CC(NC(=O)c1ccc(Br)cc1)c1ccc(N2CCCCCC2)c([N+](=O)[O-])c1` (stereo unspecified), the IC50 in data set [18] is > 80 µM (inactive). The AC50 in data set [19] is > 70 µM (inactive); in data set [20] it was 15.4 µM (active); in data set [22] it was 7.66 µM (active); in data set [23], 26.6 µM (active). Also, the EC50 in data set [21] is 38.3 µM (active).

As for `Clc1ccc(Cl)c(Oc2ccc(Oc3nc(Cl)ccc3Cl)cc2)n1`, the IC50 is 11.4 µM (active) in data set [1] and 0.727 µM (active) in data set [2]. The EC50 in data set [3] was > 53 µM (inactive).

As to `O=C1NC(=S)N/C1=C\c1ccc(-c2cc([N+](=O)[O-])ccc2Br)o1`, the IC50 in data set [7] is recorded as > 100 µM (not active).

As for `Cc1noc(C)c1-c1nccc(NC2CC2)n1`, the AC50 was 31.6 µM (inconclusive) in data set [4] and “inconclusive” in [6].

On to `O=C1C(=Cc2ccccc2Cl)CCc2ccccc21`, for which the IC50 in data set [8] and in [9] was > 67.5 µM (inactive) in each case.

As to `O=C(c1sc2ccccc2c1Cl)N1CCN(c2ccc(F)cc2)CC1`, the AC50 was 2.82 µM (inconclusive) in data set [24], 0.0891 µM (inconclusive) in [25] and “inconclusive” in [6].

With `O=C(O)CCCCC(=O)c1ccc(CC(=O)O)s1`, the IC50 in data set [7] is > 100 µM (not active).
